Data taken from patent publication US5547962A, “5-amino-8-methyl-7-pyrrolidinylquinoline-3-carboxylic acid derivative” (priority 1993, dated 1996).
In brackets after ≈: the same amount, converted by molar mass. Counter-ions that a name gives are not always drawn.

Legend:
[1] = system: S. marcescens HNR1544; experiment: Antibacterial activity, MIC by agar dilution; type: cell-based; details: Serratia marcescens, clinically isolated strain, gram -
From the text: (§1) The strains employed were as follows:
(§2) Serratia marcescens (S. marcescens)

[2] = system: S. marcescens IAM 1184; experiment: Antibacterial activity, MIC by agar dilution; type: cell-based; details: Serratia marcescens, IAM1184; laboratory standard strain, gram -
From the text: as §1, §2

[3] = system: S. marcescens HNR1767; experiment: Antibacterial activity, MIC by agar dilution; type: cell-based; details: Serratia marcescens, clinically isolated strain, gram -
From the text: as §1, §2

[4] = system: S. marcescens HNR1792; experiment: Antibacterial activity, MIC by agar dilution; type: cell-based; details: Serratia marcescens, clinically isolated strain, gram -
From the text: as §1, §2

[5] = system: S. aureus FDA 209P JC-1; experiment: Antibacterial activity, MIC by agar dilution; type: cell-based; details: Staphylococcus aureus, FDA209P; laboratory standard strain, gram +
From the text: as §1
(§3) Staphylococcus aureus (S. aureus)

[6] = system: S. aureus HPC308; experiment: Antibacterial activity, MIC by agar dilution; type: cell-based; details: Staphylococcus aureus, clinically isolated strain, gram +
From the text: as §1, §3

[7] = system: S. aureus HPC292; experiment: Antibacterial activity, MIC by agar dilution; type: cell-based; details: Staphylococcus aureus, clinically isolated strain, gram +
From the text: as §1, §3

[8] = system: S. aureus HPC527; experiment: Antibacterial activity, MIC by agar dilution; type: cell-based; details: Staphylococcus aureus, clinically isolated strain, gram +
From the text: as §1, §3

[9] = system: K. pneumoniae HNR869; experiment: Antibacterial activity, MIC by agar dilution; type: cell-based; details: Klebsiella pneumoniae, clinically isolated strain, gram -
From the text: as §1
(§4) Klebsiella pneumoniae (K. pneumoniae)

[10] = system: K. pneumoniae HNR828; experiment: Antibacterial activity, MIC by agar dilution; type: cell-based; details: Klebsiella pneumoniae, clinically isolated strain, gram -
From the text: as §1, §4

[11] = system: K. pneumoniae HNR858; experiment: Antibacterial activity, MIC by agar dilution; type: cell-based; details: Klebsiella pneumoniae, clinically isolated strain, gram -
From the text: as §1, §4

[12] = system: K. pneumoniae PCI-602; experiment: Antibacterial activity, MIC by agar dilution; type: cell-based; details: Klebsiella pneumoniae, PCI602; laboratory standard strain, gram -
From the text: as §1, §4

[13] = system: E. coli NIHJ JC-2; experiment: Antibacterial activity, MIC by agar dilution; type: cell-based; details: Escherichia coli, NIHJJC2; laboratory standard strain, gram -
From the text: as §1
Escherichia coli (E. coli)

[14] = system: E. faecalis HPC984; experiment: Antibacterial activity, MIC by agar dilution; type: cell-based; details: Enterococcus faecalis, clinically isolated strain, gram +
From the text: as §1
(§5) Enterococcus faecalis (E. faecalis)

[15] = system: E. faecalis HPC975; experiment: Antibacterial activity, MIC by agar dilution; type: cell-based; details: Enterococcus faecalis, clinically isolated strain, gram +
From the text: as §1, §5

[16] = system: E. faecalis HPC948; experiment: Antibacterial activity, MIC by agar dilution; type: cell-based; details: Enterococcus faecalis, clinically isolated strain, gram +
From the text: as §1, §5

[17] = system: E. cloacae HNR1939; experiment: Antibacterial activity, MIC by agar dilution; type: cell-based; details: Enterobacter cloacae, clinically isolated strain, gram -
From the text: as §1
(§6) Enterobacter cloacae (E. cloacae)

[18] = system: E. cloacae HNR1946; experiment: Antibacterial activity, MIC by agar dilution; type: cell-based; details: Enterobacter cloacae, clinically isolated strain, gram -
From the text: as §1, §6

[19] = system: E. cloacae 963; experiment: Antibacterial activity, MIC by agar dilution; type: cell-based; details: Enterobacter cloacae, laboratory standard strain, gram -
From the text: as §1, §6

[20] = system: E. cloacae HNR1941; experiment: Antibacterial activity, MIC by agar dilution; type: cell-based; details: Enterobacter cloacae, clinically isolated strain, gram -
From the text: as §1, §6

[21] = system: Male Hartley guinea pigs; type: in vivo; details: 10 mg/kg i.v.; for Phototoxicity: number of animals with erythemas/number of animals tested: UVA 90 minutes, 24 h after irradiation
Description: Male Hartley guinea pigs were intravenously administered test compounds at a dose of 10 mg/kg, and immediately exposed to UVA on their backs for 90 minutes.

[22] = system: A. calcoaceticus HNR904; experiment: Antibacterial activity, MIC by agar dilution; type: cell-based; details: Acinetobacter calcoaceticus, clinically isolated strain, gram -
From the text: as §1
(§7) Acinetobacter calcoaceticus (A. calcoaceticus)

[23] = system: A. calcoaceticus HNR916; experiment: Antibacterial activity, MIC by agar dilution; type: cell-based; details: Acinetobacter calcoaceticus, clinically isolated strain, gram -
From the text: as §1, §7

[24] = system: A. calcoaceticus HNR939; experiment: Antibacterial activity, MIC by agar dilution; type: cell-based; details: Acinetobacter calcoaceticus, clinically isolated strain, gram -
From the text: as §1, §7

[25] = system: Male Wistar rats; experiment: Convulsions, intracerebroventricular (i.c.v.) administration with fenbufen; type: in vivo, rat; details: 20 μg i.c.v.; for Convulsions i.c.v.: number of animals with convulsions/number of animals tested: fenbufen 50 mg/kg i.p.
Description: Male Wistar rats weighing 180-220 g were anesthetized with sodium pentobarbital (45 mg/kg, i.p.) and fixed in a stereotaxic apparatus. For the intracerebroventricular injection, a 0.6 mm diameter stainless steel guide cannula was implanted in each rat, being positioned 1.5 mm above the left lateral cerebroventricle (A: 6.2, R: 1.0, H: +1.0), according to the atlas of De Groot (1959). The guide cannula was fixed with dental cement on the skull and it was closed with a 0.3 mm diameter stainless steel stylet. To prevent infection, 10,000 units of potassium penicillin G were injected intramuscularly. The rats were allowed a few days to recover from the surgery.
For the measurement of convulsions, 30 min after intraperitoneal injection of 50 mg/kg of fenbufen, 20 μg of the test compounds was given through a 0.3 mm diameter of stainless steel cannula with a polyethylene catheter, which was 1.5 mm longer than the guide cannula in order to be inserted into the […] cerebroventricle (H: +1.0). […] The position of the intracerebroventricular cannula was confirmed by the injection of 10 μl of 1% evans blue followed by sectioning of the brain of each rat which had been used in the experiment.

[26] = system: male ICR mice; experiment: Convulsions, intraperitoneal (i.p.) administration with fenbufen; details: for Convulsions i.p.: number of animals with convulsions/number of animals tested: 100 mg/kg i.p., fenbufen 100 mg/kg orally
Description: Thirty minutes later, they were injected intraperitoneally with the test compounds at a dose of 100 mg/kg. Thereafter, the onset of convulsions was recorded.

[27] = system: CHL cells; experiment: Chromosomal aberration test with a Chinese hamster lung cell line (CHL); type: cell-based; details: for Chromosomal aberration: 3 μg/ml
Description: The chromosomal aberration test was conducted with a Chinese hamster lung cell line (CHL). 2-(2-Furyl)-3-(5-nitro-2-furyl)acrylamide was used as a positive control. Cells treated with the test compounds were cultured for 6 h at 37° C. in 5% CO2 -humidified air. Following the 6 h treatment the cells were washed. Fresh medium was added to the washed cells and they were cultured for a further 18 h. Colcemide was added to the cultures 2 h before the fixation of chromosome preparation, in order to collect metaphase cells.

[28] = system: polychromatic erythrocytes (PCEs); experiment: Micronucleus test, bone marrow of mice; type: in vivo, BDF 1 mice; details: percent of the number of MNPCEs per 1,000 PCEs; 250 mg/kg i.p., 24 h
Description: Nine-week-old male BDF 1 mice were used in this test. The test compounds were injected intraperitoneally with a dose of 250 mg/kg. After 24 h mice were sacrificed and the bone marrow of the femur was collected. Bone marrow smears were fixed on the slides with methanol and stained with Giemsa according to the usual method. For each animal, the number of micronucleated polychromatic erythrocytes (MNPCEs) per 1,000 polychromatic erythrocytes (PCEs) was counted under the microscope. Cyclophosphamide was used as a positive control.

Row | Compound | MIC [1] [µg/mL] | MIC [2] [µg/mL] | MIC [3] [µg/mL] | MIC [4] [µg/mL] | MIC [5] [µg/mL] | MIC [6] [µg/mL] | MIC [7] [µg/mL] | MIC [8] [µg/mL] | MIC [9] [µg/mL] | MIC [10] [µg/mL] | MIC [11] [µg/mL] | MIC [12] [µg/mL] | MIC [13] [µg/mL] | MIC [14] [µg/mL] | MIC [15] [µg/mL] | MIC [16] [µg/mL] | MIC [17] [µg/mL] | MIC [18] [µg/mL] | MIC [19] [µg/mL] | MIC [20] [µg/mL] | also measured
1 | Cc1c(N2C[C@@H](N)[C@@H](C)C2)c(F)c(N)c2c(=O)c(C(=O)O)cn(C3CC3)c12 (relative stereo) [Example 14, 5-Amino-7-(cis-3-amino-4-methyl-1-pyrrolidinyl)-1-cyclopropyl-6-fluoro-1,4-dihydro-8-methyl-4-oxoquinoline-3-carboxylic acid] | 0.05 (≈ 0.134 µM) | 0.2 (≈ 0.534 µM) | 6.25 (≈ 16.7 µM) | 3.13 (≈ 8.36 µM) | 0.012 | 0.39 | 1.56 | 0.012 | 1.56 (≈ 4.17 µM) | 3.13 (≈ 8.36 µM) | 0.2 (≈ 0.534 µM) | 0.006 (≈ 0.016 µM) | 0.012 (≈ 0.032 µM) | 0.2 | 1.56 | 0.39 | 0.2 (≈ 0.534 µM) | 0.2 (≈ 0.534 µM) | 0.05 (≈ 0.134 µM) | 6.25 (≈ 16.7 µM) | Phototoxicity: number of animals with erythemas/number of animals tested [21]: 0/5; MIC [22]: 3.13 µg/mL (≈ 8.36 µM); MIC [23]: 0.025 µg/mL (≈ 0.0668 µM); MIC [24]: 0.2 µg/mL (≈ 0.534 µM)
2 | Cc1c(N2CCNCC2)c(F)c(N)c2c(=O)c(C(=O)O)cn(C3CC3)c12 [Reference Compound I, 5-amino-1-cyclopropyl-6-fluoro-1,4-dihydro-8-methyl-4-oxo-7-piperazinylquinoline-3-carboxylic acid hydrochloride] | – | – | – | – | – | – | – | – | – | – | – | – | – | – | – | – | – | – | – | – | convulsions i.c.v., in words ([25]; fenbufen): observed; Convulsions i.c.v.: number of animals with convulsions/number of animals tested [25]: 3/3; Convulsions i.p.: number of animals with convulsions/number of animals tested [26]: 0/6; symptom of sedation ([26]; i.p. convulsion test): All of mice used for the test had a symptom of sedation; Phototoxicity: number of animals with erythemas/number of animals tested [21]: 0/5
3 | Cl.Nc1c(F)c(N2C[C@@H](N)C3(CC3)C2)cc2c1c(=O)c(C(=O)O)cn2C1CC1 [Reference Compound B, 5-amino-7-((S)-7-amino-5-azaspiro[2.4]hept-5-yl)-1-cyclopropyl-6-fluoro-1,4-dihydro-4-oxoquinoline-3-carboxylic acid hydrochloride] | – | – | – | – | – | – | – | – | – | – | – | – | – | – | – | – | – | – | – | – | Convulsions i.p.: number of animals with convulsions/number of animals tested [26]: 0/6; Chromosomal aberration ([27]; Table 1, CHL cells): + (10-20%); Chromosomal aberration ([27]; Table 2, CHL cells): + (10-20%); Chromosomal aberration ([27]; Table 3, CHL cells): + (10-20%); Chromosomal aberration ([27]; Table 7, CHL cells): + (10-20%); toxicity (chromosomal aberration), in words ([27]; comparison to Tables 7 and 8): observed; death of CHL cells ([27]; treatment with 100 μg/ml): all cells died; phototoxicity, in words ([21]; UVA): observed; Phototoxicity: number of animals with erythemas/number of animals tested [21]: 3/5
4 | O=C(O)c1cn(C2CC2)c2cc(N3CCNCC3)c(F)cc2c1=O [Ciprofloxacin, ciprofloxacin] | – | – | – | – | – | – | – | – | – | – | – | – | – | – | – | – | – | – | – | – | Convulsions i.c.v.: number of animals with convulsions/number of animals tested [25]: 3/3; Convulsions i.p.: number of animals with convulsions/number of animals tested [26]: 3/6; Frequency of chromosomal aberration ([27]; Table 5-A, CHL cells, 100 μg/ml): - (<10%)
5 | O=P1(N(CCCl)CCCl)NCCCO1 (stereo not shown) [Cyclophosphamide, reference compound] | – | – | – | – | – | – | – | – | – | – | – | – | – | – | – | – | – | – | – | – | Incidence of MNPCEs [28]: 2.9%
6 | Cc1c(N2C[C@@H](N)C(C)(C)C2)c(F)c(N)c2c(=O)c(C(=O)O)cn(C3CC3)c12 [Example 16, 5-Amino-7-((S)-3-amino-4,4-dimethyl-1-pyrrolidinyl)-1-cyclopropyl-6-fluoro-1,4-dihydro-8-methyl-4-oxoquinoline-3-carboxylic acid] | 0.1 (≈ 0.257 µM) | 0.39 (≈ 1 µM) | 25 (≈ 64.4 µM) | 6.25 (≈ 16.1 µM) | 0.025 | 0.39 | 1.56 | 0.025 | 3.13 (≈ 8.06 µM) | 12.5 (≈ 32.2 µM) | 0.39 (≈ 1 µM) | 0.003 (≈ 0.00772 µM) | 0.05 (≈ 0.129 µM) | 0.2 | 1.56 | 0.39 | 0.39 (≈ 1 µM) | 0.39 (≈ 1 µM) | 0.05 (≈ 0.129 µM) | 12.5 (≈ 32.2 µM) | MIC [22]: 6.25 µg/mL (≈ 16.1 µM); MIC [23]: 0.025 µg/mL (≈ 0.0644 µM); MIC [24]: 0.39 µg/mL (≈ 1 µM)
7 | Cc1c(N2CCC(C)(N)C2)c(F)c(N)c2c(=O)c(C(=O)O)cn(C3CC3)c12 (stereo not shown) [Example 18, 5-Amino-7-(3-amino-3-methyl-1-pyrrolidinyl)-1-cyclopropyl-6-fluoro-1,4-dihydro-8-methyl-4-oxoquinoline-3-carboxylic acid] | 0.1 (≈ 0.267 µM) | 0.2 (≈ 0.534 µM) | 25 (≈ 66.8 µM) | 3.13 (≈ 8.36 µM) | 0.025 | 0.78 | 6.25 | 0.05 | 3.13 (≈ 8.36 µM) | 6.25 (≈ 16.7 µM) | 0.39 (≈ 1.04 µM) | 0.006 (≈ 0.016 µM) | 0.025 (≈ 0.0668 µM) | 0.2 | 3.13 | 0.78 | 0.39 (≈ 1.04 µM) | 0.39 (≈ 1.04 µM) | 0.05 (≈ 0.134 µM) | 12.5 (≈ 33.4 µM) | MIC [22]: 12.5 µg/mL (≈ 33.4 µM); MIC [23]: 0.05 µg/mL (≈ 0.134 µM); MIC [24]: 0.78 µg/mL (≈ 2.08 µM)
